# Reference: PMC7252906 (Toxicology and applied pharmacology, 2019)
# “And” between values parts separate entries of the source, which are not always exact repeats. Equal entries are not always repeated. Where two headings read alike, the source gives them in different places.
# Assays:
# [1] = Radiochemical HPLC profiling of urine after [^14C]DMAE; type: in vivo, Harlan Sprague Dawley rats
# [2] = Disposition of DMAE after gavage, rats and mice summarised together; type: in vivo, Wistar Han rats and B6C3F1 mice; details: range over groups
# [3] = Disposition of [^14C]DMAE after single gavage administration, strain comparison; type: in vivo; details: male Sprague Dawley rats, gavage 500 mg/kg, 24 h
# [4] = male Wistar rats, IV 11 mg/kg, 6 minutes post-dosing; ref Dormard et al. (1975); cited from earlier work
# [5] = Incorporation of [^14C]DMAE-derived radioactivity in tissue lipids; type: in vivo, Wistar Han rats; details: gavage 100 mg/kg, 2 h; for Radioactivity in tissue lipids (% dose administered) / Total radioactivity in tissue lipids: male rats
# [6] = female Wistar Han rats, gavage 500 mg/kg, 24 h
# [7] = male Wistar Han rats, IV 10 mg/kg, 24 h
# [8] = male Wistar Han rats, IV 10 mg/kg, 24 h, listed as [^14C]DMAE, 10 mg/kg
# [9] = male Wistar Han rats, gavage 10 mg/kg, 24 h
# [10] = male Wistar Han rats, gavage 10 mg/kg, 24 h, listed as [^14C]DMAE, 10 mg/kg
# [11] = male Wistar Han rats, gavage 100 mg/kg, 24 h
# [12] = male Wistar Han rats, gavage 500 mg/kg, 24 h
# [13] = male Wistar Han rats, gavage 500 mg/kg, 72 h
structure (smiles),measurement,setting,value
"CN(C)CCO [DMAE, Dimethylaminoethanol]",Estimated percentage of area of DMAE peak in urine chromatogram,"[1]; Rat/Female, [^14C]DMAE 500 mg/kg, Oral",55%
same,Estimated percentage of area of DMAE peak in urine chromatogram,"[1]; Rat/Male, [^14C]DMAE 10 mg/kg, IV",3%
same,Estimated percentage of area of DMAE peak in urine chromatogram,"[1]; Rat/Male, [^14C]DMAE 10 mg/kg, Oral",95%
same,Estimated percentage of area of DMAE peak in urine chromatogram,"[1]; Rat/Male, [^14C]DMAE 100 mg/kg, Oral",56%
same,Estimated percentage of area of DMAE peak in urine chromatogram,"[1]; Rat/Male, [^14C]DMAE 500 mg/kg, Oral",34%
same,excreted as exhaled CO2,[2],3–22%
same,excreted in urine,[2],16–69%
same,tissue retention,[2],21–44%
same,"% Dose Recovered, CO2",[3],2.94 ± 0.230 % dose
same,"% Dose Recovered, Feces",[3],0.538 ± 0.335 % dose
same,"% Dose Recovered, Tissues and GI Tract (includes contents)",[3],34.1 ± 1.80 % dose
same,"% Dose Recovered, Total Recovered",[3],98.3 ± 3.50 % dose
same,"% Dose Recovered, Urine",[3],60.4 ± 3.80 % dose
same,"% Dose Recovered, VOCs",[3],0.220 ± 0.047 % dose
same,% of IV dose present in the plasma,[4],0.16%
same,administered dose recovered in tissues (excluding GI tract),"Wistar Han rats, oral, 24 h post-exposure, range over groups",21–29%
same,"% Dose Recovered, Feces",[6],0.549 ± 0.147 % dose
same,"% Dose Recovered, Tissues and GI Tract (includes contents)",[6],27.4 ± 1.40 % dose
same,"% Dose Recovered, Total Recovered",[6],98.4 ± 0.800 % dose
same,"% Dose Recovered, VOCs",[6],0.818 ± 0.456 % dose
same,"% Dose Recovered, CO2","female Wistar Han rats, gavage 500 mg/kg, 24 h, listed as [^14C]DMAE, 500 mg/kg",6.09 ± 0.810 % dose
same,"% Dose Recovered, CO2",[7],3.52 ± 0.780 % dose
same,"% Dose Recovered, Feces",[7],0.330 ± 0.092 % dose
same,"% Dose Recovered, Tissues and GI Tract (includes contents)",[7],38.5 ± 2.30 % dose
same,"% Dose Recovered, VOCs",[7],0.230 ± 0.029 % dose
same,"% Dose Recovered, Urine","male Wistar Han rats, IV 10 mg/kg, 24 h, 10 mg/kg",39 % dose
same,"% Dose Recovered, Total Recovered",[8],82 % dose and 81.8 ± 7.10 % dose
same,"% Dose Recovered, Urine",[8],39.2 ± 7.80 % dose
same,"% Dose Recovered, CO2",[9],3.67 ± 0.440 % dose
same,"% Dose Recovered, Feces",[9],0.206 ± 0.242 % dose
same,"% Dose Recovered, Tissues and GI Tract (includes contents)",[9],33.9 ± 2.20 % dose
same,"% Dose Recovered, VOCs",[9],0.153 ± 0.037 % dose
same,"percent radioactivity remaining in all tissues, excluding GI tract",[9],~28%
same,"% Dose Recovered, Total Recovered",[10],95 % dose and 94.9 ± 3.20 % dose
same,"% Dose Recovered, Urine",[10],57.0 ± 4.10 % dose
same,"% Dose Recovered, CO2",[11],4.84 ± 0.700 % dose
same,"% Dose Recovered, Feces",[11],0.302 ± 0.061 % dose
same,"% Dose Recovered, Tissues and GI Tract (includes contents)",[11],30.1 ± 3.80 % dose
same,"% Dose Recovered, Total Recovered",[11],93.9 ± 2.90 % dose
same,"percent radioactivity remaining in all tissues, excluding GI tract",[11],~25%
same,"% Dose Recovered, Urine","male Wistar Han rats, gavage 100 mg/kg, 24 h, listed as [^14C]DMAE, 100 mg/kg",59 % dose and 58.6 ± 5.10 % dose
same,"% Dose Recovered, CO2",[12],4.78 ± 0.810 % dose
same,"% Dose Recovered, Feces",[12],0.518 ± 0.472 % dose
same,"% Dose Recovered, Tissues and GI Tract (includes contents)",[12],24.3 ± 2.10 % dose
same,"% Dose Recovered, Total Recovered",[12],92.1 ± 1.90 % dose
same,"% Dose Recovered, VOCs",[12],0.198 ± 0.038 % dose
same,"percent radioactivity remaining in all tissues, excluding GI tract",[12],~21%
same,"% Dose Recovered, Urine","male Wistar Han rats, gavage 500 mg/kg, 24 h, listed as [^14C]DMAE, 500 mg/kg",62 % dose and 62.1 ± 1.50 % dose
same,"% Dose Recovered, Feces",[13],1.11 ± 1.01 % dose
same,"% Dose Recovered, Tissues and GI Tract (includes contents)",[13],14.5 ± 1.20 % dose
same,"% Dose Recovered, Total Recovered",[13],92.0 ± 2.20 % dose
same,"% Dose Recovered, Urine",[13],68.6 ± 2.00 % dose
same,administered dose found as expired CO2,"male Wistar Han rats, gavage, all dose levels (10, 100, 500 mg/kg), 24 h",4–5%
same,total administered dose recovered,"male and female Wistar Han rats, oral administration, range over groups",92–98%
same,excretion in urine,"rats, gavage, range over groups",57–64%
same,excreted as exhaled CO2,"rats, range over groups",≤ 6%
same,highest level of radioactivity incorporated into lipids in any tissues,[5]; male Wistar Han rats,~ 1 % of the administered dose
same,Radioactivity in tissue lipids (% dose administered),"[5]; Brain, Fatty Acids",0.020 % dose
same,Total radioactivity in tissue lipids,"[5]; Brain, Fatty Acids",34
same,Radioactivity in tissue lipids (% dose administered),"[5]; Brain, Neutral Lipids",0.075 % dose
same,Total radioactivity in tissue lipids,"[5]; Brain, Neutral Lipids",107
same,Radioactivity in tissue lipids (% dose administered),"[5]; Brain, Phospholipids",0.097 % dose
same,Total radioactivity in tissue lipids,"[5]; Brain, Phospholipids",167
same,Radioactivity in tissue lipids (% dose administered),"[5]; Heart, Fatty Acids",0.010 % dose
same,Total radioactivity in tissue lipids,"[5]; Heart, Fatty Acids",17
same,Radioactivity in tissue lipids (% dose administered),"[5]; Heart, Neutral Lipids",0.028 % dose
same,Total radioactivity in tissue lipids,"[5]; Heart, Neutral Lipids",40
same,Radioactivity in tissue lipids (% dose administered),"[5]; Heart, Phospholipids",0.188 % dose
same,Total radioactivity in tissue lipids,"[5]; Heart, Phospholipids",323
same,Radioactivity in tissue lipids (% dose administered),"[5]; Kidney, Fatty Acids",0.047 % dose
same,Total radioactivity in tissue lipids,"[5]; Kidney, Fatty Acids",81
same,Radioactivity in tissue lipids (% dose administered),"[5]; Kidney, Neutral Lipids",0.029 % dose
